# Laboratory results taken from publication PMC11062899, “De novo development of small cyclic peptides that are orally bioavailable” (Nature Chemical Biology, 2023).
# Several values for one entry are separate records, joined by “and”; a condition that tells them apart may be missing. Identical values can stand only once. Like-named read-outs stand apart in the source and are kept apart here.
# Columns and labels:
# [1] = Metabolic stability in rat liver microsomes (RLMs); conditions: for microsomal CLint / half-life: rat
# human α-thrombin = human α-thrombin (Homo sapiens, UniProt P00734); assay: Protease inhibition, Ki for human α-thrombin (fluorogenic substrate Z-Gly-Gly-Arg-AMC); assay type: biochemical; conditions: human alpha thrombin; for Slope normalized to DMSO (proteolytic substrate cleavage over time): replicates R1-R3
# Outline: (§1)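 Ki derived through Cheng–Prusoff from IC50s (four-parameter logistic fit) against activity of peptide-free controls. Product fluorescence was read every 3 min over 30 min at 25 °C, substrate Z-Gly-Gly-Arg-AMC at 50 μM. Enzyme was 2 nM human or 3 nM rat α-thrombin, pH 7.4 buffer.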
# rat α-thrombin = molecular target: T1, rat α-thrombin (Rattus norvegicus, UniProt P18292); assay: Protease inhibition, Ki for rat α-thrombin (fluorogenic substrate Z-Gly-Gly-Arg-AMC); assay type: biochemical; conditions: rat alpha thrombin; for Slope normalized to DMSO (proteolytic substrate cleavage over time): replicates R1-R3
# T1 construct: rat α-thrombin (Molecular Innovations) were used at final concentrations of 2 nM and 3 nM; purchased Molecular Innovations
# Outline: as §1
# [2] = Passive artificial membrane permeability (PAMPA)
# Description: The plate system consisted of a 96-well microwell plate (donor wells) and a 96-well insert containing a PVDF membrane coated with tri-layers of phospholipids (acceptor wells). Permeability was measured from the bottom plate (donor wells) to the top insert (acceptor wells). Cyclic peptide or reference compound solutions were prepared at a concentration of 50 μM in PBS buffer (pH 7.4) containing 5% DMSO, and 300 μl of the resulting solutions was placed into the donor wells of the PAMPA plate. Acceptor wells were prepared by adding 200 μl of PBS buffer (pH 7.4) containing 5% DMSO. The insert was stacked onto the donor plate, and the system was covered with a lid to avoid evaporation. […] Additionally, 3:2 dilutions of the 50 μM cyclic peptide stocks were prepared in PBS buffer (pH 7.4) containing 5% DMSO to yield a sample corresponding to the theoretical equilibrium between donor and acceptor wells. The samples were run on the LC–MS to measure the cyclic peptide concentration representing maximum permeability. Permeability percent was calculated using equation (4) below.4 Permeability%=PeptideAcceptor/PeptideEquilibrated×100 where [PeptideAcceptor] represents the AUC measured on the LC–MS for the acceptor wells, and [PeptideEquilibrated] represents the AUC measured for the samples diluted to the theoretical equilibrium. Detection limit for the assay was typically at 1% permeability.
# Papp values were calculated using equation (5).5 Papp=VD×VA/VD+VA×A×t×−ln1−PeptideAcceptor/PeptideEquilibrated where VD and VA are the volumes of donor and acceptor wells, respectively; A is the area of the membrane; and t is the incubation time.
# porcine pepsin = molecular target: T2, porcine pepsin (Sus scrofa, UniProt P00791); assay: Peptide stability in simulated gastric fluid (SGF); assay type: in vitro ADME
# T2 construct: 0.32 g of porcine pepsin (Sigma-Aldrich, P7125) was dissolved under gentle agitation; purchased Sigma-Aldrich P7125
# T2 sequence (P00791 60-385): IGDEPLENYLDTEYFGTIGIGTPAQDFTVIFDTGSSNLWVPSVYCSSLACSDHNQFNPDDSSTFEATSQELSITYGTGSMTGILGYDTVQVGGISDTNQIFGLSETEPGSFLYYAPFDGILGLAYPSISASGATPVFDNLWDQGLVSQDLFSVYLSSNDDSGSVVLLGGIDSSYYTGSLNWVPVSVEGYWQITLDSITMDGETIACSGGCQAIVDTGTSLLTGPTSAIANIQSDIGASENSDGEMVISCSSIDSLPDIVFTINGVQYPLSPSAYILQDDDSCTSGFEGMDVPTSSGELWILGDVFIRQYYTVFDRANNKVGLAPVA
# Outline: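 Peptide from a 1 mM DMSO stock was added to fluid pre-warmed at 37 °C. SGF was pH 1.2 NaCl with porcine pepsin (0.32 g per 100 ml), and SIF was pH 6.8 potassium phosphate with porcine pancreatin (1 g per 100 ml). Supernatant peptide was quantified by LC–MS, with residual expressed as T1/T0.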
compound,measurement,setting,value
O=C1C[C@H]2CCCN2C(=O)[C@H](Cc2ccccc2)NC(=O)[C@@H](NC(=O)c2ccc(Cl)s2)CCCSCc2cccc(n2)CSCCN1 [compound 35],"TIC value of compound, 0 min, R1","[1]; rat liver microsomes, 0 min, replicate R1",23625921
same,"TIC value of compound, 0 min, R3","[1]; rat liver microsomes, 0 min, replicate R3",25801224
same,"TIC value of compound, 5 min, R1","[1]; rat liver microsomes, 5 min, replicate R1",20860918
same,"TIC value of compound, 5 min, R3","[1]; rat liver microsomes, 5 min, replicate R3",23019710
same,"TIC value of compound, 15 min, R1","[1]; rat liver microsomes, 15 min, replicate R1",12779197
same,"TIC value of compound, 15 min, R3","[1]; rat liver microsomes, 15 min, replicate R3",13375542
same,"TIC value of compound, 30 min, R1","[1]; rat liver microsomes, 30 min, replicate R1",7192264
same,"TIC value of compound, 30 min, R3","[1]; rat liver microsomes, 30 min, replicate R3",5638202
same,"TIC value of compound, 60 min, R1","[1]; rat liver microsomes, 60 min, replicate R1",1618321
same,"TIC value of compound, 60 min, R3","[1]; rat liver microsomes, 60 min, replicate R3",1784495
same,microsomal CLint,"[1]; CL (ul/min/mg protein), R1, RLM CL, replicate R1, unrounded",79 µL/min/mg
same,microsomal CLint,"[1]; CL (ul/min/mg protein), R2, RLM CL, replicate R2, unrounded",90.4 µL/min/mg
same,microsomal CLint,"[1]; CL (ul/min/mg protein), R3, RLM CL, replicate R3, unrounded",88.3 µL/min/mg
same,half-life,"[1]; Half Life (min), R1, RLM metabolic stability, replicate R1",17.6 min
same,half-life,"[1]; Half Life (min), R2, RLM metabolic stability, replicate R2",15.3 min
same,half-life,"[1]; Half Life (min), R3, RLM metabolic stability, replicate R3",15.7 min
same,half-life,"[1]; microsomes, Metabolic stability: Half life T1/2 (min), RLMs, mean and SD, three measurements",16.2 ± 1 min
same,microsomal CLint,"[1]; microsomes, Metabolic stability: RLM CL (ul/min/mg), RLMs, mean and SD, three measurements",86 ± 5 µL/min/mg
same,microsomal CLint,"[1]; microsomes, RLM CL, Average, average of R1-R3",85.9 µL/min/mg
same,microsomal CLint,"[1]; microsomes, RLM CL, R1, RLM CL, replicate R1, summary block",79 µL/min/mg
same,microsomal CLint,"[1]; microsomes, RLM CL, R2, RLM CL, replicate R2, summary block",90.3 µL/min/mg
same,microsomal CLint,"[1]; microsomes, RLM CL, R3, RLM CL, replicate R3, summary block",88.3 µL/min/mg
same,Ki,"human α-thrombin; average of R1-R3, read-out: Ki Average, human alpha thrombin inhibition",62.8 nM
same,Slope normalized to DMSO (proteolytic substrate cleavage over time),human α-thrombin; peptide 1.02E-03 uM,93.6 and 100.9 and 97.6
same,Slope normalized to DMSO (proteolytic substrate cleavage over time),human α-thrombin; peptide 1.04E+00 uM,8.6 and 16.9 and 12.9
same,Slope normalized to DMSO (proteolytic substrate cleavage over time),human α-thrombin; peptide 1.27E-04 uM,93.4 and 102.6 and 100.9
same,Slope normalized to DMSO (proteolytic substrate cleavage over time),human α-thrombin; peptide 1.30E-01 uM,39.5 and 49.3 and 44.8
same,Slope normalized to DMSO (proteolytic substrate cleavage over time),human α-thrombin; peptide 1.59E-05 uM,106.2 and 101.5 and 96.8
same,Slope normalized to DMSO (proteolytic substrate cleavage over time),human α-thrombin; peptide 1.63E-02 uM,75.0 and 77.8 and 78.6
same,Slope normalized to DMSO (proteolytic substrate cleavage over time),human α-thrombin; peptide 1.67E+01 uM,-7.7 and 7.5 and 5.3
same,Slope normalized to DMSO (proteolytic substrate cleavage over time),human α-thrombin; peptide 2.03E-03 uM,88.5 and 91.4 and 92.0
same,Slope normalized to DMSO (proteolytic substrate cleavage over time),human α-thrombin; peptide 2.08E+00 uM,6.1 and 11.4 and 10.4
same,Slope normalized to DMSO (proteolytic substrate cleavage over time),human α-thrombin; peptide 2.54E-04 uM,95.8 and 99.6 and 97.3
same,Slope normalized to DMSO (proteolytic substrate cleavage over time),human α-thrombin; peptide 2.60E-01 uM,30.6 and 32.4 and 32.2
same,Slope normalized to DMSO (proteolytic substrate cleavage over time),human α-thrombin; peptide 3.18E-05 uM,97.7 and 98.2 and 93.3
same,Slope normalized to DMSO (proteolytic substrate cleavage over time),human α-thrombin; peptide 3.26E-02 uM,69.6 and 73.9 and 66.3
same,Slope normalized to DMSO (proteolytic substrate cleavage over time),human α-thrombin; peptide 3.33E+01 uM,2.9 and 7.3 and 3.8
same,Slope normalized to DMSO (proteolytic substrate cleavage over time),human α-thrombin; peptide 4.07E-03 uM,82.9 and 85.6 and 85.5
same,Slope normalized to DMSO (proteolytic substrate cleavage over time),human α-thrombin; peptide 4.17E+00 uM,2.6 and 6.0 and 6.1
same,Slope normalized to DMSO (proteolytic substrate cleavage over time),human α-thrombin; peptide 5.09E-04 uM,91.0 and 91.5 and 96.2
same,Slope normalized to DMSO (proteolytic substrate cleavage over time),human α-thrombin; peptide 5.21E-01 uM,17.9 and 15.7 and 18.4
same,Slope normalized to DMSO (proteolytic substrate cleavage over time),human α-thrombin; peptide 6.36E-05 uM,96.3 and 98.6 and 101.5
same,Slope normalized to DMSO (proteolytic substrate cleavage over time),human α-thrombin; peptide 6.51E-02 uM,47.1 and 63.8 and 53.5
same,Slope normalized to DMSO (proteolytic substrate cleavage over time),human α-thrombin; peptide 6.67E+01 uM,2.7 and 9.5 and 7.0
same,Slope normalized to DMSO (proteolytic substrate cleavage over time),human α-thrombin; peptide 7.95E-06 uM,96.2 and 102.7 and 103.6
same,Slope normalized to DMSO (proteolytic substrate cleavage over time),human α-thrombin; peptide 8.14E-03 uM,70.3 and 73.9 and 78.9
same,Slope normalized to DMSO (proteolytic substrate cleavage over time),human α-thrombin; peptide 8.33E+00 uM,3.3 and 5.4 and 3.6
same,IC50,"human α-thrombin; single replicates R1-R3, read-out: IC50, human alpha thrombin inhibition",77.8 nM and 89.4 nM and 77.2 nM
same,Ki,"human α-thrombin; single replicates R1-R3, read-out: Ki, human alpha thrombin inhibition",59.9 nM (2×) and 68.9 nM (2×) and 59.5 nM (2×)
same,Ki,"rat α-thrombin; average of R1-R3, read-out: Ki Average, rat alpha thrombin inhibition",18.4 nM
same,Slope normalized to DMSO (proteolytic substrate cleavage over time),rat α-thrombin; peptide 1.02E-03 uM,95.3 and 93.5 and 90.4
same,Slope normalized to DMSO (proteolytic substrate cleavage over time),rat α-thrombin; peptide 1.04E+00 uM,8.6 and 8.7 and 5.7
same,Slope normalized to DMSO (proteolytic substrate cleavage over time),rat α-thrombin; peptide 1.27E-04 uM,96.6 and 98.1 and 94.9
same,Slope normalized to DMSO (proteolytic substrate cleavage over time),rat α-thrombin; peptide 1.30E-01 uM,29.1 and 30.9 and 27.9
same,Slope normalized to DMSO (proteolytic substrate cleavage over time),rat α-thrombin; peptide 1.59E-05 uM,99.9 and 100.8 and 98.0
same,Slope normalized to DMSO (proteolytic substrate cleavage over time),rat α-thrombin; peptide 1.63E-02 uM,66.4 and 67.5 and 64.5
same,Slope normalized to DMSO (proteolytic substrate cleavage over time),rat α-thrombin; peptide 1.67E+01 uM,5.5 and 6.4 and 3.4
same,Slope normalized to DMSO (proteolytic substrate cleavage over time),rat α-thrombin; peptide 2.03E-03 uM,85.0 and 86.2 and 80.9
same,Slope normalized to DMSO (proteolytic substrate cleavage over time),rat α-thrombin; peptide 2.08E+00 uM,8.2 and 8.0 and 6.0
same,Slope normalized to DMSO (proteolytic substrate cleavage over time),rat α-thrombin; peptide 2.54E-04 uM,94.8 and 90.7 and 91.8
same,Slope normalized to DMSO (proteolytic substrate cleavage over time),rat α-thrombin; peptide 2.60E-01 uM,20.1 and 21.2 and 15.6
same,Slope normalized to DMSO (proteolytic substrate cleavage over time),rat α-thrombin; peptide 3.18E-05 uM,99.5 and 101.3 and 96.2
same,Slope normalized to DMSO (proteolytic substrate cleavage over time),rat α-thrombin; peptide 3.26E-02 uM,58.6 and 59.5 and 55.9
same,Slope normalized to DMSO (proteolytic substrate cleavage over time),rat α-thrombin; peptide 3.33E+01 uM,4.9 and 6.5 and 3.7
same,Slope normalized to DMSO (proteolytic substrate cleavage over time),rat α-thrombin; peptide 4.07E-03 uM,77.2 and 73.8 and 74.9
same,Slope normalized to DMSO (proteolytic substrate cleavage over time),rat α-thrombin; peptide 4.17E+00 uM,6.8 (2×) and -8.2
same,Slope normalized to DMSO (proteolytic substrate cleavage over time),rat α-thrombin; peptide 5.09E-04 uM,92.2 and 90.6 and 87.0
same,Slope normalized to DMSO (proteolytic substrate cleavage over time),rat α-thrombin; peptide 5.21E-01 uM,12.0 and 12.9 and 10.7
same,Slope normalized to DMSO (proteolytic substrate cleavage over time),rat α-thrombin; peptide 6.36E-05 uM,97.8 and 99.0 and 94.4
same,Slope normalized to DMSO (proteolytic substrate cleavage over time),rat α-thrombin; peptide 6.51E-02 uM,36.9 and 38.0 and 37.1
same,Slope normalized to DMSO (proteolytic substrate cleavage over time),rat α-thrombin; peptide 6.67E+01 uM,5.7 and 6.9 and 3.2
same,Slope normalized to DMSO (proteolytic substrate cleavage over time),rat α-thrombin; peptide 7.95E-06 uM,102.6 and 104.4 and 98.4
same,Slope normalized to DMSO (proteolytic substrate cleavage over time),rat α-thrombin; peptide 8.14E-03 uM,67.4 and 67.8 and 64.3
same,Slope normalized to DMSO (proteolytic substrate cleavage over time),rat α-thrombin; peptide 8.33E+00 uM,6.5 and 6.4 and -9.8
same,IC50,"rat α-thrombin; single replicates R1-R3, read-out: IC50, rat alpha thrombin inhibition",31.1 nM and 30.7 nM and 37.8 nM
same,Ki,"rat α-thrombin; single replicates R1-R3, read-out: Ki, rat alpha thrombin inhibition",17.2 nM (2×) and 17 nM (2×) and 20.9 nM (2×)
same,PAMPA permeability: % permeability,"[2]; 50 μM, 12–18 h, acceptor concentration relative to equilibrium",21 ± 8%
same,Papp at 50 μM,"[2]; PAMPA, pH 7.4",2.24 ×10⁻⁶ cm/s
same,Permeability% Average,"[2]; top well sample vs theoretical equilibrium sample (TIC), average of R1-R3",21.1%
same,Permeability%,"[2]; top well sample vs theoretical equilibrium sample (TIC), single replicates R1-R3",16.62% and 15.98% and 30.80%
same,"SGF stability, Residual peptide Average","porcine pepsin; after 8 h vs 0 h (TIC), average of R1-R3",98.71
same,"SGF stability, Residual peptide","porcine pepsin; after 8 h vs 0 h (TIC), single replicates R1-R3",102.19 and 96.66 and 97.27
same,remaining at 8 h,"porcine pepsin; simulated gi fluid, 8 h, 37 °C, pH 1.2, read-out: Proteolytic stability: SGF (8 h) % remaining",99 ± 3%
